These results are taken from patent US12350250B2, “Aggrelytes for treating ocular conditions” (The Regents of the University of Colorado, a Body Corporate, priority 2022, dated 2025).

The target of assay [1] is T1, αA-crystallin (αAC) (Homo sapiens, UniProt P02489).
T1 sequence (P02489 1-173): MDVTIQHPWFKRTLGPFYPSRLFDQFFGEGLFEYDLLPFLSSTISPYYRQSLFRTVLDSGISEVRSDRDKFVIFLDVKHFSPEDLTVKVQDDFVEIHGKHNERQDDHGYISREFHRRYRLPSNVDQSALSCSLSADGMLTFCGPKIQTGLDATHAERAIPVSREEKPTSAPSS
Briefly: Relative protein acetylation capability on recombinant αAC. In kind it is biochemical. Conditions: 500 μM acetylating agent, αAC 3 mg/mL, 24 hours, 37° C. The procedure:
The relative ability of Aggrelyte-2 to acetylate lysine residues in proteins was investigated using αA-crystallin (αAC). Human recombinant αAC (3 mg/mL PBS) was incubated in 50 mM sodium phosphate buffer, pH 7.4, for 24 hours at 37° C. while shaking without or with 500 μM acetylating agent (Aggrelyte-2, acetyl-CoA, acetic anhydride, or aspirin), dialyzed against PBS for 24 hours at 4° C.

The subject of assay [2] is WI proteins (human lens). Briefly: Relationship between protein acetylation and solubility: WI proteins treated with acetic anhydride or Aggrelyte-2. It counts as biochemical. An excerpt:
To determine whether protein acetylation alone contributed to lens protein solubility, the soluble protein levels in WI proteins treated with acetic anhydride and Aggrelyte-2 were compared.

The test system of assay [3] is mouse lenses. Put plainly: Stiffness of ex vivo mouse lenses (Example 18). Also noted: species or system mouse (C57BL/6J). To be noted: 1 mM, 24 hours, ex vivo mouse lenses (3-6 months old); not significant. The procedure: In this example, the lenses were dissected from the eyes of mice (C57BL/6J, 3-6 months old, Jackson Laboratories, Stock No. 000664) by a posterior approach and incubated without (“Control”) or with Aggrelyte-2 or Aggrelyte-2A (1 mM) for 24 hours in serum-free and phenol-red-free MEM (297 mOsm) at 37° C. Lens stiffness was measured as in Example 10, except that the load was applied at 50 mg increments.

For assay [4], the system named is mouse lenses. Briefly: Acetylated proteins in ex vivo treated mouse lenses (Western blot, Example 19). To be noted: 1 mM, 24 hours. The procedure:
The lenses from Example 18 were homogenized using N2-bubbled 50 mM phosphate buffer, pH 7.4 (0.4 mL per lens), in a hand-held motorized homogenizer. The homogenate was centrifuged at 20,000×g for 20 minutes at 4° C. The resulting supernatant was collected, and its protein content was measured using BCA Protein Assay Kit using BSA as the standard. The soluble protein was subjected to 12% SDS-PAGE under denaturing conditions and the proteins were electrophoretically transferred to a nitrocellulose membrane and blocked with 5% nonfat dry milk. The membrane was then incubated with a monoclonal antibody against N-acetyllysine (AcK antibody @ 1:5,000 dilution; Cell Signaling Technology Catalog #9681S) for 16 hours, followed by horseradish peroxidase (HRP)-conjugated goat anti-mouse IgG (1:5,000 dilution; Cell Signaling Technology Catalog #7076S) for 1 hour. Chemiluminescence was detected using the Enhanced Chemiluminescence Detection Kit. The membrane was stained with Ponceau-S to visualize the proteins and normalize acetyllysine (AcK)-bearing protein to total protein load.

Assay [5] deals with human lenses. Put plainly: Stiffness of ex vivo human lenses (Example 22). To be noted: 250 μM, 48 hours. The procedure:
To test the effects of Aggrelyte-2 and Aggrelyte-2A on human lenses (age: 47-67 years), lenses were incubated in media containing freshly dissolved aggrelyte (250 μM) for 48 hours, with aggrelyte replacement after 24 hours. One lens from each donor pair was treated with aggrelyte, while the other was used as the control. After incubation, lens stiffness was measured, as described above in Example 20.

Assay [6] relates to human lenses. Briefly: Acetylated proteins in ex vivo treated human lenses (Example 23). Conditions: 250 μM, 48 hours. The procedure: Each lens from Example 21 was decapsulated and homogenized in N2-bubbled 50 mM phosphate buffer, pH 7.4 (1.5 mL per lens), in a hand-held glass homogenizer. The sample was processed and evaluated for protein content as described in Example 19.

Assay [7] deals with mouse lenses. Conditions: 40 mM topical twice daily for four weeks, mice.
Method: A 40 mM solution of Aggrelyte-2A was prepared in a liquid formulation that consisted of benzalkonium chloride (0.001%), NaH2PO4·H2O (0.269%), Na2HPO4 (0.433%), hypromellose (0.2%), and NaCl (0.5%). Aggrelyte-2A in the formulation (5 μl) was applied to the right eye twice daily (8 AM and 4 PM) to unanesthetized animals for four weeks. The left eye received only the formulation (5 μl) (“Vehicle” or “Control”). After treatment, the animals were euthanized by CO2 asphyxiation. The eyes were enucleated, and the lenses were removed immediately by a posterior approach and placed in fresh PBS. The stiffness of the lenses was measured using a computer-controlled lens squeezer. The AcK-bearing protein levels of the lenses were measured by Western blotting. The protein-thiol content of the lenses was measured using a Thiol Quantification Assay Kit from Abcam, using reduced GSH as the standard.

Molecules are shown by their SMILES.

Turning to `CC(=O)OC(C)=O` [acetic anhydride], in assay [1], the “acetylating potency, fold higher than Aggrelyte-2” value is listed as around 21 fold and the “rank order of acetylating agents” value was “most potent acetylating agent”. The “acetylation of WI proteins, comparison” value in assay [2] was “better acetylating agent than Aggrelyte-2”.
As for `CC(=O)Oc1ccccc1C(=O)O` [aspirin], in assay [1], the “rank order of acetylating agents” value is “followed by Aggrelyte-2, aspirin, and acetyl-CoA”.
In the case of `COC(=O)[C@H](CSC(C)=O)NC(=O)CC(C)(C)C` [Aggrelyte-2A, methyl S-acetyl-N-(3,3,-dimethylbutanoyl)-L-cysteinate], in assay [3], the “reduction of lens stiffness” value is on record as “approximately 20%”. For the same molecule, in assay [4], the “density of acetyl-bearing proteins, % increase compared to Aggrelyte-2” value is recorded as “at least 50%” and the “density of acetyl-bearing proteins, fold increase compared to untreated control lenses” value is reported as 5 fold. Further, the “reduction of lens stiffness compared to vehicle-treated lenses” value in assay [5] (ex vivo human lenses (47-67 years)) was “approximately 15%”. In addition, in assay [5] (ex vivo human lenses, 2000-mg load (p<0.05)), the “significance of stiffness reduction at 2000-mg load” value was “significant”. The “increase in density of acetyl-bearing proteins compared to control lenses” value in assay [6] is “approximately 5%”. In addition, the “increase in protein thiol content compared to vehicle-treated lenses” value in assay [7] is “approximately 8%”. Also, the “reduction of lens stiffness compared to vehicle-treated lenses” value in assay [7] (200-mg load) is recorded as “approximately 12%”. For the same molecule, the “increase in density of AcK-bearing proteins compared to vehicle-treated lenses” value in assay [7] (Western blot) is “approximately 10%”. Further, in assay [7] (relative to 200-mg load result), the “reduction in stiffness at 400- and 500-mg loads” value is “similar”.
Consider `CC(=O)SCCNC(=O)CCNC(=O)[C@H](O)C(C)(C)COP(=O)(O)OP(=O)(O)OC[C@H]1O[C@@H](n2cnc3c(N)ncnc32)[C@H](O)[C@@H]1OP(=O)(O)O` [acetyl-CoA], for which the “rank order of acetylating agents” value in assay [1] was “followed by Aggrelyte-2, aspirin, and acetyl-CoA”.
